Where two headings read alike, the source gives them in different places.
System: pathogens of rice blast
Assay type: cell-based
Details: 25° C., 7 days, elongation length of hyphae

## COc1nc2nc3ccccc3n2c(F)c1C(F)(F)F [Example 4, 4-fluoro-2-methoxy-3-(trifluoromethyl)benzo[4,5]imidazo[1,2-a]pyrimidine]
Test solution 1000 ppm, 1,000 μl on oatmeal culture medium
  Control value: 66
Test solution 2000 ppm, 1,000 μl on oatmeal culture medium
  Control value: 96

From patent publication US12428400B2 (priority 2020, dated 2025)
